Experimental data published in patent US8685987B2, “Substituted [1,2,4]triazolo[1,5-a]pyrimidines and their use as potassium channel modulators” (Ataxion, Inc., priority 2009, dated 2014).

What follows are compounds tested against T1, hSK1 channels (Homo sapiens, UniProt Q92952) (assay: Whole-cell patch-clamp recording of SK current in HEK293 cells expressing hSK1 channels). Details: SK1 activation.
T1 construct: expressed in transfected cells; host or cells: HEK293
Format: cell-based
Excerpt: The compounds of the invention may be tested for their ability to modulate SK channels in vitro. Functional modulation can be determined by measuring the compound-induced change in SK current by the patch clamp technique as described in Strøbk et al.: “Pharmacological characterization of small-conductance Ca^2+-activated K channels expressed in HEK293 cells”, British Journal of Pharmacology (2000) 129, 991-999. From this type of measurements the potency of a given compound can be determined as e.g. Ki or IC50 values for blockers/inhibitors and EC50 values for openers/activators. Similar data can be obtained from other patch clamp configurations and from channels expressed endogenously in various cell lines.
The ionic current through small-conductance Ca^2+-activated K^+ channels (SK channels, subtype 1) is recorded using the whole-cell configuration of the patch-clamp technique in a classic patch-clamp set-up using HEK293 tissue culture cells expressing hSK1 channels as described in e.g. WO 2006/100212.
The SC100 value determined is defined as the Stimulating Concentration required for increasing the baseline current by 100%. The below SC100 values are an indication of the SK1 activating properties of the compounds of the invention.
In the case of `CON=CNc1nc2nccc(C(C)Oc3ccc(Br)cc3)n2n1` (stereo not drawn) [Example 1, N-{7-[1-(4-Bromophenoxy)ethyl]-[1,2,4]triazolo[1,5-a]pyrimidin-2-yl}-N′-methoxy-formamidine], the “The SC100 (Stimulating Concentration required for increasing the baseline current by 100%)” value was 0.015 µM.
For `CON=CNc1nc2nccc(C(C)Oc3ccc(Cl)cc3Cl)n2n1` (stereo not drawn) [Example 2, N-{7-[1-(2,4-Dichlorophenoxy)ethyl]-[1,2,4]triazolo[1,5-a]pyrimidin-2-yl}-N′-methoxy-formamidine], the “The SC100 (Stimulating Concentration required for increasing the baseline current by 100%)” value was 0.005 µM.
In the case of `CON=CNc1nc2nccc(C(C)Oc3ccc(Cl)cc3)n2n1` (stereo not drawn) [Example 3, N-{7-[1-(4-Chlorophenoxy)ethyl]-[1,2,4]triazolo[1,5-a]pyrimidin-2-yl}-N′-methoxy-formamidine], the “The SC100 (Stimulating Concentration required for increasing the baseline current by 100%)” value was 0.04 µM.
For `CCCON=CNc1nc2nccc(C(C)Oc3ccc(Cl)cc3C)n2n1` (stereo not drawn) [Example 5, N-{7-[1-(4-Chloro-2-methylphenoxy)ethyl]-[1,2,4]triazolo[1,5-a]pyrimidin-2-yl}-N′-propyloxy-formamidine], the “The SC100 (Stimulating Concentration required for increasing the baseline current by 100%)” value was 0.003 µM.
`Cc1cc(Cl)ccc1OC(C)c1ccnc2nc(NC=NOC(C)C)nn12` (stereo not drawn) [Example 6, N-{7-[1-(4-Chloro-2-methylphenoxy)ethyl]-[1,2,4]triazolo[1,5-a]pyrimidin-2-yl}-N′-isopropyloxy-formamidine] was tested, and the “The SC100 (Stimulating Concentration required for increasing the baseline current by 100%)” value was 0.40 µM.
With `CON=CNc1nc2nccc(C(C)(C)Oc3ccc(Cl)cc3C)n2n1` [Example 7, N-{7-[1-(4-Chloro-2-methylphenoxy)-1-methyl-ethyl]-[1,2,4]triazolo[1,5-a]pyrimidin-2-yl}-N′-methoxy-formamidine] the “The SC100 (Stimulating Concentration required for increasing the baseline current by 100%)” value was 0.60 µM.
In the case of `CON=CNc1nc2nccc(C(C)Oc3ccc(Cl)cc3C)n2n1` (stereo not drawn) [Example A, N-{7-[1-(4-Chloro-2-methylphenoxy)ethyl]-[1,2,4]triazolo[1,5-a]pyrimidin-2-yl}-N′-methoxy-formamidine], the “The SC100 (Stimulating Concentration required for increasing the baseline current by 100%)” value was 0.008 µM.
`CON=CNc1nc2nccc(C(C)Oc3ccc(F)cc3)n2n1` (stereo not drawn) [Example B, N-{7-[1-(4-Fluorophenoxy)ethyl]-[1,2,4]triazolo[1,5-a]pyrimidin-2-yl}-N′-methoxy-formamidine] was tested, and the “The SC100 (Stimulating Concentration required for increasing the baseline current by 100%)” value was 0.075 µM.
“N-{7-[1-(4-Chloro-2-methylphenoxy)-ethyl]-6-methyl-[1,2,4]triazolo[1,5-a]pyrimidin-2-yl}-N′-hydroxy-formamidine [Example 4]” was tested, and the “The SC100 (Stimulating Concentration required for increasing the baseline current by 100%)” value was 0.20 µM.
